PMC10794144, “A novel antibiotic class targeting the lipopolysaccharide transporter” (Nature, 2024)
In brackets after ≈: the same amount, converted by molar mass. Where two headings read alike, the source gives them in different places.

What was measured:
[1] = system: E. coli ATCC 25922; experiment: microbe, parasite or virus in culture
Method: (§1) MIC determinations were performed using the broth microdilution method and in line with CLSI guidelines M07 and M100 (refs. [37],[38]). Bacterial inocula were prepared by diluting a 0.5 McFarland suspension in CAMHB or lysogeny broth (LB) specifically for A. baylyi isolates. […] MIC values of all of the tested antibiotics were read as the lowest compound concentration inhibiting bacterial growth by naked eye or beyond which the OD600 ceased to decrease.

[2] = system: K. pneumoniae ATCC 700603; experiment: microbe, parasite or virus in culture; conditions: for MIC: Klebsiella pneumoniae
Method: as §1

[3] = system: P. aeruginosa ATCC 27853; experiment: microbe, parasite or virus in culture; conditions: Pseudomonas aeruginosa
Method: as §1

[4] = molecular target: CYP3A4 (Homo sapiens, UniProt P08684); experiment: CYP inhibition; assay type: in vitro ADME
Sequence of CYP3A4 (P08684 whole entry): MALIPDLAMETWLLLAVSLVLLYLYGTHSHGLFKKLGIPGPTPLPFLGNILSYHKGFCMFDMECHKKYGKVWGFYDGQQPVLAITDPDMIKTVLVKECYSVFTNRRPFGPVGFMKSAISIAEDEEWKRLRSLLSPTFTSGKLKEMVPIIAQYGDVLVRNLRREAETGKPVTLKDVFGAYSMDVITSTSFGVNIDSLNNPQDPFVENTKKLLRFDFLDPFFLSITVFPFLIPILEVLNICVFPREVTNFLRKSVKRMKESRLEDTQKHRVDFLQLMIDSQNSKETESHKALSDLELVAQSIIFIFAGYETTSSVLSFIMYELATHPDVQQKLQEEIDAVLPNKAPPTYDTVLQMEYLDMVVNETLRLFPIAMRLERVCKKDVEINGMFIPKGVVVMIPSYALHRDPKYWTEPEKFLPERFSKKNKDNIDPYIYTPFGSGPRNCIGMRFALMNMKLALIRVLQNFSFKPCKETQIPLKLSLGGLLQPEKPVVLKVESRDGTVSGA

[5] = molecular target: CYP2D6 (Homo sapiens, UniProt P10635); experiment: CYP inhibition; assay type: in vitro ADME
Sequence of CYP2D6 (P10635 whole entry): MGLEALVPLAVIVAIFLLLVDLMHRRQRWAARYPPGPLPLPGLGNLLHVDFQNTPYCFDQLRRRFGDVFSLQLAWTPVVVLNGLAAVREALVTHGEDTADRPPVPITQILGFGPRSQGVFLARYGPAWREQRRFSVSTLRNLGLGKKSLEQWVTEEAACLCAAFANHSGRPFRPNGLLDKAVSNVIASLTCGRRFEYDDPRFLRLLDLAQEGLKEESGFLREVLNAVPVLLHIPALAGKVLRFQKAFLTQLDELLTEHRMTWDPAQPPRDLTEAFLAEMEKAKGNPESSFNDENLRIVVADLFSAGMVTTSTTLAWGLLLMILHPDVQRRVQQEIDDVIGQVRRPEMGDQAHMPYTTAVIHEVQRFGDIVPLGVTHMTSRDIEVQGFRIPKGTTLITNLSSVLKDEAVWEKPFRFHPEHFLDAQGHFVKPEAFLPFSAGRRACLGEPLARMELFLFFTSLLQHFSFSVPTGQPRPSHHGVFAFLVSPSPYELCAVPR

[6] = ATCC700603, CAMHB, mode of at least three replicates (RO7036668 one replicate)
[7] = ATCC27853, CAMHB, mode of at least three replicates (RO7036668 one replicate)

In the case of CN1C(=O)[C@H](CCCN)NC(=O)[C@H](CCCN)NCc2ccccc2Sc2ccccc2CNC(=O)[C@@H]1Cc1c[nH]c2ccccc12 [RO7036668], the MIC ([1]; CAMHB, mode of at least three replicates (RO7036668 one replicate)) is reported as >64 µg/mL, the MIC ([1]; Escherichia coli, ATCC25922) is reported as > 64 µg/mL and the MIC [2, 6] is reported as > 64 µg/mL. The “MIC 100%” value ([2]; Study ROC004, 100%) was >64 µg/mL, the MIC [3, 7] was > 64 µg/mL and the “CYP inh. (3A4)” value [4] was 18 µM. The “CYP inh. (2D6)” value [5] was > 50 µM.

With C[C@@H](O)[C@H]1C(=O)N2C(C(=O)O)=C(S[C@@H]3CN[C@H](C(=O)N(C)C)C3)[C@H](C)[C@H]12 [meropenem, reference compound] the MIC ([1]; Escherichia coli, ATCC25922) was ≤ 0.06 µg/mL, the MIC ([1]; Escherichia coli, ATCC25922, read-out: MIC 100%) was ≤ 0.06 µg/mL and the “MIC 100%” value ([1]; Study LGC277937) was ≤0.06 µg/mL. The “MIC 100%” value ([1]; Study LGC279800) was ≤0.06 µg/mL, the “MIC 100%” value ([1]; Study LGC281440) was ≤0.06 µg/mL and the “MIC 100%” value ([1]; Study LGC282160) was ≤0.06 µg/mL. The “MIC 100%” value ([1]; Study LGC282623) was ≤0.06 µg/mL, the “MIC 100%” value ([1]; Study LGC283932) was ≤0.06 µg/mL and the “MIC 100%” value ([1]; Study LGC284200) was ≤0.06 µg/mL. For the same compound, the “MIC 100%” value ([1]; Study LGC284879) was ≤0.06 µg/mL, the “MIC 100%” value ([1]; Study LGC285582) was ≤0.06 µg/mL and the “MIC 100%” value ([1]; Study LGC286210) was ≤0.06 µg/mL. The “MIC 100%” value ([1]; Study LGC293598) was ≤0.06 µg/mL, the “MIC 100%” value ([1]; Study LGC294355) was ≤0.06 µg/mL and the “MIC 100%” value ([1]; Study LGC295147) was ≤0.06 µg/mL. For the same compound, the “MIC 100%” value ([1]; Study LGC296813) was ≤0.06 µg/mL, the “MIC 100%” value ([1]; Study LGC299544) was ≤0.06 µg/mL and the “MIC 100%” value ([1]; Study LGC301026) was ≤0.06 µg/mL. The “MIC 100%” value ([1]; Study LGC308175) was ≤0.06 µg/mL, the “MIC 100%” value ([1]; Study ROC003) was ≤0.06 µg/mL and the “MIC 100%” value ([1]; Study ROC004) was ≤0.06 µg/mL. For the same compound, the “MIC 100%” value ([1]; Study ROC005) was ≤0.06 µg/mL, the “MIC 100%” value ([1]; Study ROC006) was ≤0.06 µg/mL and the “MIC 100%” value ([1]; Study ROC007) was ≤0.06 µg/mL. For the same compound, the “MIC 100%” value ([1]; Study ROC008) was ≤0.06 µg/mL, the “MIC 100%” value ([1]; Study ROC009) was ≤0.06 µg/mL and the “MIC 100%” value ([1]; Study ROC010) was ≤0.06 µg/mL. For the same compound, the “MIC 100%” value ([1]; Study ROC013) was ≤0.06 µg/mL, the MIC [2, 6] was ≤ 0.06 µg/mL and the MIC ([2]; ATCC700603, read-out: MIC 100%, Study LGC277937, 100%) was ≤ 0.06 µg/mL. The MIC ([2]; ATCC700603, read-out: MIC 100%, Study LGC279800, 100%) was ≤ 0.06 µg/mL, the MIC ([2]; ATCC700603, read-out: MIC 100%, Study LGC281440, 100%) was ≤ 0.06 µg/mL and the MIC ([2]; ATCC700603, read-out: MIC 100%, Study LGC282160, 100%) was ≤ 0.06 µg/mL. For the same compound, the MIC ([2]; ATCC700603, read-out: MIC 100%, Study LGC282623, 100%) was ≤ 0.06 µg/mL, the MIC ([2]; ATCC700603, read-out: MIC 100%, Study LGC283932, 100%) was ≤ 0.06 µg/mL and the MIC ([2]; ATCC700603, read-out: MIC 100%, Study LGC284200, 100%) was ≤ 0.06 µg/mL. The MIC ([2]; ATCC700603, read-out: MIC 100%, Study LGC284879, 100%) was ≤ 0.06 µg/mL, the MIC ([2]; ATCC700603, read-out: MIC 100%, Study LGC285582, 100%) was ≤ 0.06 µg/mL and the MIC ([2]; ATCC700603, read-out: MIC 100%, Study LGC286210, 100%) was ≤ 0.06 µg/mL. The MIC ([2]; ATCC700603, read-out: MIC 100%, Study LGC293598, 100%) was ≤ 0.06 µg/mL, the MIC ([2]; ATCC700603, read-out: MIC 100%, Study LGC294355, 100%) was ≤ 0.06 µg/mL and the MIC ([2]; ATCC700603, read-out: MIC 100%, Study LGC295147, 100%) was ≤ 0.06 µg/mL. The MIC ([2]; ATCC700603, read-out: MIC 100%, Study LGC296813, 100%) was ≤ 0.06 µg/mL, the MIC ([2]; ATCC700603, read-out: MIC 100%, Study LGC299544, 100%) was ≤ 0.06 µg/mL and the MIC ([2]; ATCC700603, read-out: MIC 100%, Study LGC301026, 100%) was ≤ 0.06 µg/mL. For the same compound, the MIC ([2]; ATCC700603, read-out: MIC 100%, Study LGC308175, 100%) was ≤ 0.06 µg/mL, the MIC ([2]; ATCC700603, read-out: MIC 100%, Study ROC003, 100%) was ≤ 0.06 µg/mL and the MIC ([2]; ATCC700603, read-out: MIC 100%, Study ROC004, 100%) was ≤ 0.06 µg/mL. The MIC ([2]; ATCC700603, read-out: MIC 100%, Study ROC005, 100%) was ≤ 0.06 µg/mL, the MIC ([2]; ATCC700603, read-out: MIC 100%, Study ROC006, 100%) was ≤ 0.06 µg/mL and the MIC ([2]; ATCC700603, read-out: MIC 100%, Study ROC007, 100%) was ≤ 0.06 µg/mL. The MIC ([2]; ATCC700603, read-out: MIC 100%, Study ROC008, 100%) was 0.12 µg/mL (≈ 0.313 µM), the MIC ([2]; ATCC700603, read-out: MIC 100%, Study ROC009, 100%) was 0.06 µg/mL (≈ 0.156 µM) and the MIC ([2]; ATCC700603, read-out: MIC 100%, Study ROC010, 100%) was ≤ 0.06 µg/mL. The MIC ([2]; ATCC700603, read-out: MIC 100%, Study ROC012, 100%) was ≤ 0.06 µg/mL, the MIC ([2]; ATCC700603, read-out: MIC 100%, Study ROC013, 100%) was ≤ 0.06 µg/mL and the MIC [3, 7] was 0.5 µg/mL (≈ 1.3 µM). For the same compound, the MIC ([3]; ATCC27853, read-out: MIC 100%, Study LGC277937, 100%) was 0.5 µg/mL (≈ 1.3 µM), the MIC ([3]; ATCC27853, read-out: MIC 100%, Study LGC279800, 100%) was 0.25 µg/mL (≈ 0.652 µM) and the MIC ([3]; ATCC27853, read-out: MIC 100%, Study LGC281440, 100%) was 0.25 µg/mL (≈ 0.652 µM). It also gave an MIC ([3]; ATCC27853, read-out: MIC 100%, Study LGC282160, 100%) of 0.5 µg/mL (≈ 1.3 µM), an MIC ([3]; ATCC27853, read-out: MIC 100%, Study LGC282623, 100%) of 0.5 µg/mL (≈ 1.3 µM) and an MIC ([3]; ATCC27853, read-out: MIC 100%, Study LGC283932, 100%) of 0.5 µg/mL (≈ 1.3 µM). For the same compound, the MIC ([3]; ATCC27853, read-out: MIC 100%, Study LGC284200, 100%) was 0.5 µg/mL (≈ 1.3 µM), the MIC ([3]; ATCC27853, read-out: MIC 100%, Study LGC284879, 100%) was 0.5 µg/mL (≈ 1.3 µM) and the MIC ([3]; ATCC27853, read-out: MIC 100%, Study LGC285582, 100%) was 0.25 µg/mL (≈ 0.652 µM). The MIC ([3]; ATCC27853, read-out: MIC 100%, Study LGC286210, 100%) was 0.5 µg/mL (≈ 1.3 µM), the MIC ([3]; ATCC27853, read-out: MIC 100%, Study LGC293598, 100%) was 0.5 µg/mL (≈ 1.3 µM) and the MIC ([3]; ATCC27853, read-out: MIC 100%, Study LGC294355, 100%) was 0.5 µg/mL (≈ 1.3 µM). The MIC ([3]; ATCC27853, read-out: MIC 100%, Study LGC295147, 100%) was 0.5 µg/mL (≈ 1.3 µM), the MIC ([3]; ATCC27853, read-out: MIC 100%, Study LGC296813, 100%) was 0.5 µg/mL (≈ 1.3 µM) and the MIC ([3]; ATCC27853, read-out: MIC 100%, Study LGC299544, 100%) was 0.5 µg/mL (≈ 1.3 µM). The MIC ([3]; ATCC27853, read-out: MIC 100%, Study LGC301026, 100%) was 0.25 µg/mL (≈ 0.652 µM), the MIC ([3]; ATCC27853, read-out: MIC 100%, Study LGC308175, 100%) was 0.25 µg/mL (≈ 0.652 µM) and the MIC ([3]; ATCC27853, read-out: MIC 100%, Study ROC003, 100%) was 0.5 µg/mL (≈ 1.3 µM). The MIC ([3]; ATCC27853, read-out: MIC 100%, Study ROC004, 100%) was 0.5 µg/mL (≈ 1.3 µM), the MIC ([3]; ATCC27853, read-out: MIC 100%, Study ROC005, 100%) was 0.5 µg/mL (≈ 1.3 µM) and the MIC ([3]; ATCC27853, read-out: MIC 100%, Study ROC006, 100%) was 0.5 µg/mL (≈ 1.3 µM). It also gave an MIC ([3]; ATCC27853, read-out: MIC 100%, Study ROC007, 100%) of 0.5 µg/mL (≈ 1.3 µM), an MIC ([3]; ATCC27853, read-out: MIC 100%, Study ROC008, 100%) of 2 µg/mL (≈ 5.22 µM) and an MIC ([3]; ATCC27853, read-out: MIC 100%, Study ROC009, 100%) of 0.25 µg/mL (≈ 0.652 µM). The MIC ([3]; ATCC27853, read-out: MIC 100%, Study ROC010, 100%) was 0.5 µg/mL (≈ 1.3 µM), the MIC ([3]; ATCC27853, read-out: MIC 100%, Study ROC012, 100%) was 0.12 µg/mL (≈ 0.313 µM) and the MIC ([3]; ATCC27853, read-out: MIC 100%, Study ROC013, 100%) was 0.5 µg/mL (≈ 1.3 µM).
